Read-outs that look alike come from different tables or passages of the source.
Tests used:
Caco-2 cells [1] = test: Toxicity potential (TP) by MTT assay and synergy (S) of mixtures; assay type: cell-based, human
Method: As used herein “toxicity potential” or “TP” is used to assess the safety of CPEs and refers to the toxicity of one or more CPEs as determined using a Methyl Thiazole Tetrazolium (MTT) kit (American Type Culture Collection, Rockville, Md.). Caco-2 cells were seeded at 10^5 cells/well onto a 96-well plate. Enhancer solutions (100 μl) were applied for 30 minutes. 10 μl of reagent from an MTT kit (American Type Culture Collection, Rockville, Md.) was applied to each well for 5 hours, after which 100 μl of detergent was applied to each well and allowed to incubate in the dark at room temperature for about 40 hours. Absorbance was read at 570 nm (MTT dye) and 650 nm (detergent).
TP values are reported as the fraction of nonviable cells, as compared to the negative control, DMEM. TP values range from 0 to 1, with 0 indicating no mitrochondrial toxicity, and 1 representing maximum toxicity.
As used herein “synergy” or “S” refers to the difference between the linear average of the toxicity of the individual components and the experimentally measured toxicity of the mixture. Synergy was calculated as follows:
S=[X1·TP1+X2·TP2+X3·TP3]−TPmix Eq. 3
where X1, X2, and X3 are the weight fractions of single enhancers 1, 2, and 3, respectively, and TP1, TP2, TP3, and TPmix are the toxicity potentials of pure CPE 1, pure CPE 2, pure CPE 3, and the mixture of CPEs at the corresponding weight fractions X1, X2, and X3. All TP values in the equation above are obtained at the same total concentration. Since TP values can range from 0 to 1, maximum and minimum Synergy values are 1 and −1, respectively.
Caco-2 cells were seeded at 10^5 cells/well onto a 96-well plate. Enhancer solutions (100 μl) were applied for 30 minutes. 10 μl of reagent from an MTT kit (American Type Culture Collection, Rockville, Md.) was applied to each well for 5 hours, after which 100 μl of detergent was applied to each well and allowed to incubate in the dark at room temperature for about 40 hours. Absorbance was read at 570 nm (MTT dye) and 650 nm (detergent). Toxicity potential (TP) values are reported as the fraction of nonviable cells, as compared to the negative control, DMEM. TP values range from 0 to 1, with 0 indicating no mitrochondrial toxicity, and 1 representing maximum toxicity.

[2] = system: Caco-2 cell line (HTB-37)
Method: 10 μL of MTT solution (5 mg/mL) was added to each well for 4 h (37° C.), after which 100 μL of 100% DMSO was applied and the plates were incubated for 1 hr with moderate shaking Absorbance was measured at 570 nm using a Tecan Saffire™ fluorescent microplate reader (Tecan Group Ltd, Mannedorf, Switzerland).

Caco-2 monolayers [3] = test: TEER over time with PPS (Example 5); assay type: cell-based, human; conditions: for decrease in TEER (% of initial value): 5 hours
Method: Caco-2 cell line HTB-37 (ATCC, Rockville, Md.), derived from human colon cells, was used for all experiments. Cells were maintained in DMEM supplemented with 25 IU/ml of penicillin, 25 mg/L of streptomycin, 250 μg/L of amphotericin B and 100 ml/L of fetal bovine serum. Monolayers were grown on BD Biocoat™ HTS collagen filter supports (BD Biosciences, Bedford, Mass.) according to supplier instructions. At the end of the growth period, the integrity of the cell monolayer was confirmed by transepithelial electrical resistance (TEER) measurements (Millicell-ERS voltohmmeter, Millipore, Billerica, Mass.). Only monolayers with TEER values in the range of 150-200 Ω-cm^2 were used for further experimentation.

Caco-2 monolayers [4] = system: Caco-2 monolayers
Method: (§4) Upper filter supports containing viable Caco-2 monolayers were transferred into a 24-well BD Falcon plate and 1 ml of media was dispensed into each basolateral compartment. Solutions containing the CPE (“enhancer solutions”) were applied to the apical compartment and TEER readings were taken at 10 minutes. TEER recovery was assessed by removing enhancer solutions after 30 minutes, applying fresh media, and measuring TEER values at 24 hours.

Caco-2 cells [5] = test: Calcein entry into epithelial cells, fluorescence microscopy; assay type: cell-based, human; conditions: 0.01% PPS, 0.01% (w/v) calcein
Method: A solution containing a permeation enhancer and 0.01% (w/v) calcein dissolved in phosphate buffered saline was applied to Caco-2 cells. After 30 minutes, solutions were removed and replaced with a solution containing only calcein. After 1 hour, samples were washed 3× with phosphate buffered saline and viewed with a Zeiss fluorescence microscope.

Caco-2 monolayer [6] = test: Confocal laser microscopy of FITC-insulin permeation with PPS; assay type: cell-based, human; conditions: 5 hours
From the text: Following fixation, cells were gently washed with HBSS, membranes gently removed from the plastic insert, and were mounted on a microscopy slide with DAPI containing cell mounting media (Vectashield® Hardset®, Vector Laboratories, Burlingame, Calif.). All samples were imaged on a confocal microscope (Leica and Olympus Fluoview 500).

intestinal epithelium = test: Intestinal tissue histology after PPS; assay type: in vivo, rat; conditions: 0.1% and 1% w/v PPS, 0.5 ml, 5 hrs, SD rats
Method: Histological studies were performed to evaluate the possibility of damage caused by PPS in the intestine. […] The sections were stained using hematoxylin-eosin staining and imaged at 50× magnification using an inverted light microscope to determine signs of pathological changes.

[7] = Plasma sCT concentration after intestinal injection of sCT with or without PPS; assay type: in vivo, rat; conditions: 1% w/v PPS with sCT 3 mg/kg, SD rats
Method: Adult male Sprague-Dawley (SD) rats of 275-300 g, fasted for 7 hours were used for all studies. A midline abdominal incision of 2.5-3.0 cm was made in animals anesthetized by 1.5-3.0% isoflurane to expose the gastrointestinal system. […] Incision was then closed with sterile vicryl […] (muscular), and Vetbond® tissue glue (skin). Blood samples were collected up to 5 hours by tail vein bleeding (heparinized tubes for plasma Calcium, and EDTA tubes for plasma sCT determination), and plasma was separated for analysis of both pharmacodynamic and pharmacokinetic response. Pharmacodynamic response was measured by quantifying plasma calcium levels using a colorimetric calcium assay kit (Sciencell Laboratories, Carlsbad, Calif.); and pharmacokinetic efficacy was tested by quantifying plasma concentrations of salmon calcitonin (sCT) using an extraction-free ELISA kit (Bachem Americas Inc., Torrance, Calif.) following manufacturer's protocols.

Caco-2 monolayers [8] = test: Transwell permeability of sulforhodamine-B or FITC-insulin with PPS; assay type: cell-based, human
From the text: The withdrawn sample was immediately replaced with an equivalent amount of the experimental media.

Caco-2 monolayers [9] = test: TEER reversibility after PPS exposure; assay type: cell-based, human; conditions: 0.03% w/v PPS for 10 minutes or 1 hour; within 24 hours of removal
Caco-2 cells [10] = conditions: 0.1% enhancer
Method: Enhancer solutions (100 μl) were applied for 30 minutes. 25 μl of the solution was then transferred to a fresh 96-well plate and mixed with 25 μl of LDH reagent from the CytoTox 96® assay (Promega, Madison, Wis.) and allowed to react for 30 minutes in the dark at room temperature. Stop solution (25 μl) was then added to each well, and the absorbance was read at 490 nm. LDH potential (LP) values are reported as the fraction of maximal LDH release, as determined by the positive control lysis solution provided with the assay kit (˜1% Triton-X100).
Equation 5 was used to assess the relative contribution of transcellular and paracellular pathways to permeability of the intestinal epithelium. […] According to Equation 4, the line EP=LP corresponds to enhancers that act predominantly by the transcellular route (paracellular contributions are negligible). Enhancers lying on the vertical EP axis primarily utilize the paracellular pathway, since there is no relationship between EP and LP when transcellular contributions are negligible. The relative contribution of the paracellular pathway is higher for enhancers falling closer to the EP axis than to the EP=LP line.

Caco-2 monolayers [11] = test: Permeability of tritium-labeled mannitol or 70 kDa dextran across Caco-2 monolayers
Method: (§1) Solutions containing CPEs and 1 μCi/ml of tritium-labeled mannitol or 70 kDa dextran (American Radiolabeled Chemicals, St. Louis, Mo.) were applied to the apical side of Caco-2 monolayers. Samples were taken from the basolateral compartment every 10 minutes for 1 hour and the radiolabeled contents were analyzed with a scintillation counter (Packard Tri-Carb 2100 TR, Meriden, Conn.).
(§2) where ΔM is the amount of solute transported across the barrier in the time Δt, CM is the concentration of solute in the apical compartment, and Axs is the cross-sectional area of epithelium in contact with the apical solution.
(§3) Positive control experiments were performed on BD Biocoat™ filter supports in the absence of cells.

Caco-2 monolayer [12] = conditions: 0.1% enhancer (total), 10 min
Method: The Examples described herein used 1% Triton X-100 as the positive control.
All TEER values were normalized by their initial values.
where TEERCPE and TEER+ are the resistance values (% of initial) of the enhancer solution and positive control solution, respectively, after 10 minutes of exposure. EP lies on a scale of 0 to 1, with 1 representing maximum enhancement as compared to the positive control.
Caco-2 cell line HTB-37 (ATCC, Rockville, Md.), derived from human colon cells, was used for all experiments. Cells were maintained in DMEM supplemented with 25 IU/ml of penicillin, 25 mg/L of streptomycin, 250 ug/L of amphotericin B and 100 ml/L of fetal bovine serum. Monolayers were grown on BD Biocoat™ collagen filter supports (Discovery Labware, Bedford, Mass.) according to supplier instructions. […]
as §4

in vitro = conditions: human, Caco-2
Method: as §1, §2, §3

[13] = system: Primary epidermal keratinocyte cultures (HEKa); test: Keratinocyte cytotoxicity (LC50), MTT; assay type: cell-based, human; conditions: HEKa cells
Method: Primary epidermal keratinocyte cultures from an adult human source (HEKa) were purchased from Invitrogen Corp (Carlsbad, Calif.) and used for all cytotoxicity experiments. Cells were maintained in a humidified incubator (37° C., 5% CO2), in EpiLife medium with 60 μM calcium and phenol red, supplemented with 10 ml/l human keratinocyte growth supplement, 5 IU/ml penicillin and 5 μg/ml streptomycin. All components of growth media were purchased from Invitrogen Corp (Carlsbad, Calif.). Cells were grown to 70-80% confluence in cell culture flasks (Corning, Lowell, Mass.) as per suppliers' protocols.
At the end of the growth period, keratinocyte cells were seeded at a density of 10^4 cells/well in 96-well tissue culture treated polystyrene plates (Corning, Lowell, Mass.) and incubated overnight to allow cell attachment. Cells were supplied with fresh EpiLife medium (90 μl/well) at the start of experiment, followed by application of test formulations (10 μl/well). The final concentration of test formulations in each well was 0.0001% w/v. This concentration limit was determined based on the LC50 values of component chemicals for HEKa cell line, which were determined in a separate experiment. The cells were incubated with the test formulations for 1 hour. […] The plates were incubated for 16 hours in a humidified environment and absorbance was read at 570 nm.

B. thailendensis = test: Minimum inhibitory concentration, broth microdilution; assay type: cell-based; conditions: 18 hours, 37° C.
Method: Minimum inhibitory concentration against B. thailendensis was determined. Broth microdilution method was followed for MIC determination. Briefly, fresh cultures were grown on the day of experiment using the protocol described below.
Low sodium Leuria-Bertani (LSLB) broth (10 g tryptone 1-1, 5 g yeast extract 1-1, 5 g NaCl 1-1) made in ultrapure water and sterilized via autoclaving (121° C., 15 min) was used for culturing B. thailendensis. Culturing protocol was same as given above for E. coli.
The cultures were adjusted to 5.5×10^5 cfu/ml and used within 30 minutes to minimize change in bacterial counts. Cultures were dispensed in 96-well cell culture polypropylene plates (Corning, Lowell, Mass.) at 90 μl/well. Serial dilutions of test formulations were made at 10× concentration. Inoculums in each well were incubated with 10 μl of test formulation dilutions for 18 hours at 37° C. under humidified conditions. At the end of incubation period, the plates were visibly inspected for bacterial growth. Colonies were counted for selected wells by plating culture dilutions on LSLB plates.

With `CCCCCCCCCC[N+](C)(C)C.[Br-]` [DTAB, Decyltrimethyl ammonium bromide] the TP (Caco-2 cells [1]; 0.1% enhancer (total), 30 min) was 0.56.

For `CCCCCCCCCCCCCCCC[N+](C)(C)CCCS(=O)(=O)[O-]` [PPS, Palmityldimethyl ammonio propane sulfonate], the cell viability [2] was roughly 88%, the “toxicity on Caco-2 cells” value ([2]; Caco-2) was “no detectable toxicity” and the “decrease in TEER (% of initial value)” value (Caco-2 monolayers [3]; 0.01% w/v PPS) was 50%. For the same molecule, the “decrease in TEER (% of initial value)” value (Caco-2 monolayers [3]; 0.03% w/v PPS) was roughly 70%, the “drop in TEER” value (Caco-2 monolayers [3]; higher concentration (0.03% w/v PPS), 15 minutes) was −50% and the “cell monolayer structure by TEER recovery” value (Caco-2 monolayers [4]) was “did not damage cell monolayer structure”. For the same molecule, the “epithelial cells with calcein transport into the cell” value (Caco-2 cells [5]) was “more than 75%”, the “increase of FITC-insulin transport across the monolayer (fluorescence intensity)” value (Caco-2 monolayer [6]; 0.01% PPS) was 1.3 fold and the “increase of FITC-insulin transport across the monolayer (fluorescence intensity)” value (Caco-2 monolayer [6]; 0.03% w/v PPS) was 3.1 fold. The “pathological damage to the intestinal epithelium” value (intestinal epithelium) was “no evidences of necrosis or specific inflammation”, the “enhancement of systemic sCT availability based on peak plasma concentrations” value [7] was 45-50 fold and the TP (Caco-2 cells [1]; 0.01% (w/v) enhancer, 30 min) was 0. The “increase in sulforhodamine transport over negative control” value (Caco-2 monolayers [8]; 0.01% PPS) was 1.7 fold, the “increase in sulforhodamine transport over negative control” value (Caco-2 monolayers [8]; 0.03% PPS) was 2.6 fold and the “enhancement of FITC-insulin transport” value (Caco-2 monolayers [8]; 0.03% w/v PPS) was 2.3 fold. For the same molecule, the “enhancement of FITC-insulin transport” value (Caco-2 monolayers [8]; lower concentrations of PPS (0.01% w/v)) was “did not increase significantly” and the “TEER values returned (% of initial)” value (Caco-2 monolayers [9]) was 90-100%.

In the case of `c1ccc(N2CCNCC2)cc1` [PPZ, Phenyl piperazine], the “TEER recovery, % of original value” (Caco-2 monolayers [4]; after removal of 0.1% PPZ, within 24 hours) is reported as 100%, the K (Caco-2 cells [10]) is reported as 0.86 and the TP (Caco-2 cells [1]; 0.1% enhancer (total), 30 min) is reported as 0.09. For the same molecule, the “increase of 70 kDa dextran permeability” value (Caco-2 monolayers [11]; enhancer at 0.1%, 70 kDa dextran) was greater than 11 fold, the “increase of mannitol permeability” value (Caco-2 monolayers [11]; enhancer at 0.1%, mannitol) was “more than 14 fold” and the EP (Caco-2 monolayer [12]) was 0.95.

For `CCN(CC)c1ccc2c(-c3ccc(S(=O)(=O)O)cc3S(=O)(=O)[O-])c3ccc(=[N+](CC)CC)cc-3oc2c1` [Sulforhodamine-B], the “% Transport” value (Caco-2 monolayers [8]; PPS 0.01%, 0.15 mg) was 3.3 ± 0.4%, the “Apparent Permeability (Papp)” value (Caco-2 monolayers [8]; PPS 0.01%, 0.15 mg) was 6.0 ± 0.6 10^−6 cm/s and the “% Transport” value (Caco-2 monolayers [8]; PPS 0.03%, 0.15 mg) was 5.1 ± 0.9%. The “Apparent Permeability (Papp)” value (Caco-2 monolayers [8]; PPS 0.03%, 0.15 mg) was 9.1 ± 1.6 10^−6 cm/s, the “% Transport” value (Caco-2 monolayers [8]; no PPS, 0.15 mg) was 1.9 ± 1.3% and the “Apparent Permeability (Papp)” value (Caco-2 monolayers [8]; no PPS, 0.15 mg) was 3.5 ± 2.3 10^−6 cm/s.

Molecule `OC[C@@H](O)[C@@H](O)[C@H](O)[C@H](O)CO` [mannitol, reference compound] has a Papp A→B at 1 h, 1 μCi/ml (in vitro) of 0.43 ×10⁻⁶ cm/s.

With “FITC-insulin: tracer molecule, FITC-insulin (˜6,000 da)” the “Apparent Permeability (Papp)” value (Caco-2 monolayers [8]; Caco-2) was 15.6 ± 0.7 10^−6 cm/s.

For Sodium laureth sulfate [SLA], the TP (Caco-2 cells [1]) was 0.88.

Molecule benzalkoniium chloride [BZK] has an LC50 [13] of 0.00078 % w/v and an MIC (B. thailendensis) of 0.00048 % w/v.

For dextran [reference compound], the “average permeability in the absence of CPEs” value (Caco-2 monolayers [11]; no CPE, Caco-2 monolayers) was 4.9×10^−7±2.3×10^−7.

With sorbitan monolaurate [S20] the LC50 [13] was “negligible toxicity” and the MIC (B. thailendensis) was “low antibacterial potency”.

— patent US20130274352A1, “Oral Drug Devices and Drug Formulations” (The Regents of the University of California, priority 2009, published 2013)
